Data set [1] concerns the target T1, Tyrosinase (Agaricus bisporus, UniProt O42713).
T1 sequence (O42713 whole entry): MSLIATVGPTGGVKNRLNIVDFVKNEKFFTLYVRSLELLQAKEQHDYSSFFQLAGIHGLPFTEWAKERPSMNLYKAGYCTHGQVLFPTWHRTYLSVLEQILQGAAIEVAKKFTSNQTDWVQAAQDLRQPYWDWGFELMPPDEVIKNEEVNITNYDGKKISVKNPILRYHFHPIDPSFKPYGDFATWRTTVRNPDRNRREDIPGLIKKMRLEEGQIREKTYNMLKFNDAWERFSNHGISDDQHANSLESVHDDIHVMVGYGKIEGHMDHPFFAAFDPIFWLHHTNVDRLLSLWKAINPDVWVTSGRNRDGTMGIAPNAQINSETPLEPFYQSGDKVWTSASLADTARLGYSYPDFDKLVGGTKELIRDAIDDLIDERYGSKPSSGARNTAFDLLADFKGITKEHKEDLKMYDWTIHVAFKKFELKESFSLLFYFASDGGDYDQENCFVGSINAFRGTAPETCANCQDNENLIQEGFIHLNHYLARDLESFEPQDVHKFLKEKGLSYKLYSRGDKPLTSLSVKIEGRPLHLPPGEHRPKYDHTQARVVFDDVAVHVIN
Description: Inhibition of mushroom tyrosinase using L-DOPA as substrate after 2 mins by spectrophotometry

A further data set relates to Escherichia coli. Kind of data set: microbe, parasite or virus in culture. The settings on record: KCTC-1924, 24 h.
The subject of the next data set is Staphylococcus aureus. Nature of the data set: Antibacterial activity against Staphylococcus aureus KCTC-1916 after 24 hrs by twofold dilution method. Type of data set: functional. The note with it: KCTC-1916, 24 h.
For data set [2], the target named is T1, Tyrosinase. Kind of data set: Competitive inhibition of mushroom tyrosinase using L-DOPA as substrate after 2 mins by Lineweaver-Burk plot.

In brackets after ≈: the same amount, converted by molar mass.

Description for Escherichia coli: Antibacterial activity against Escherichia coli KCTC-1924 after 24 hrs by twofold dilution method

As usually defined, the IC50 is the concentration that inhibits the measured activity by half. Higher therefore signals a need for much substance. `CCOC1Cc2c(C(C)=O)c(O)c3ccccc3c2O1` (stereo unspecified) displayed an IC50 of 25.11 µg/mL (≈ 92.2 µM). On Tyrosinase [1], this compound had an IC50 of 305 µM. In the data set on Escherichia coli, this compound registered an MIC of 16 µg/mL (≈ 58.8 µM). This compound came in with an MIC with Staphylococcus aureus of 0.5 µg/mL (≈ 1.84 µM).
By Ki is commonly meant a dissociation constant, usually derived from enzyme kinetics or from competition with a known ligand. A higher Ki goes with a looser hold on the target. Turning to `CCCOC1Cc2c(C(C)=O)c(O)c3ccccc3c2O1` (stereo unspecified), the half-inhibitory concentration (IC50) came to 3.33 µg/mL (≈ 11.6 µM). The compound further showed an IC50 against Tyrosinase [1] of 31.1 µM. In the data set on Escherichia coli, this compound showed an MIC of 0.5 µg/mL (≈ 1.75 µM). Also, in the data set with Staphylococcus aureus, the MIC was found to be 0.5 µg/mL (≈ 1.75 µM). In addition, at Tyrosinase [2], the Ki came to 11.2 µM.
`CC(=O)c1c2c(c3ccccc3c1O)OC(OCC(C)C)C2` (stereo unspecified) came in with an IC50 of 6.3 µg/mL (≈ 21 µM). Further, on Tyrosinase [1], the IC50 was 198 µM. Further, the MIC against Staphylococcus aureus amounted to 32 µg/mL (≈ 107 µM).
The compound `CCCCOC1Cc2c(C(C)=O)c(O)c3ccccc3c2O1` (stereo unspecified) returned an IC50 of 5.01 µg/mL (≈ 16.7 µM). On Tyrosinase [1], this compound had an IC50 of 232 µM. The compound also displayed an MIC against Escherichia coli of 0.5 µg/mL (≈ 1.66 µM). For the same compound, the MIC with Staphylococcus aureus was 8 µg/mL (≈ 26.6 µM).
Compound `COC1(C)Cc2c(C(C)=O)c(O)c3ccccc3c2O1` (stereo unspecified) registered a concentration for half-maximal inhibition (IC50) of 31.47 µg/mL (≈ 116 µM). The IC50 on Tyrosinase [1] was above 367 µM. In the data set on Escherichia coli, this compound showed an MIC of 16 µg/mL (≈ 58.8 µM). In the data set on Staphylococcus aureus, the MIC was found to be 0.5 µg/mL (≈ 1.84 µM).
The compound `CC(=O)c1c2c(c3ccccc3c1O)OC(C)(c1ccccc1)C2` (stereo unspecified) registered an IC50 of 77.62 µg/mL (≈ 244 µM). The 50% inhibitory concentration (IC50) on Tyrosinase [1] is above 314 µM. Also, in the data set with Escherichia coli, the MIC was 2 µg/mL (≈ 6.28 µM). Further, in the data set on Staphylococcus aureus, the MIC is 32 µg/mL (≈ 101 µM).
For the compound `COc1ccc(C2Cc3c(C(C)=O)c(O)c4ccccc4c3O2)cc1` (stereo unspecified), the IC50 is above 100 µg/mL. Moreover, the IC50 on Tyrosinase [1] was above 299 µM. Further, in the data set on Staphylococcus aureus, the MIC was 32 µg/mL (≈ 95.7 µM).
On to `CCO[C@@H]1Oc2c(c(C(C)=O)c(O)c3ccccc23)[C@@H]1C` (relative stereo), for which the IC50 was 62.51 µg/mL (≈ 218 µM). Besides, on Tyrosinase [1], the IC50 was above 349 µM. For the same compound, in the data set with Escherichia coli, the MIC came out at 32 µg/mL (≈ 112 µM). This compound also showed an MIC against Staphylococcus aureus of 0.5 µg/mL (≈ 1.75 µM).
As for `CCO[C@H]1Oc2c(c(C(C)=O)c(O)c3ccccc23)[C@@H]1C` (relative stereo), the IC50 is above 100 µg/mL. Further, on Tyrosinase [1], inhibition was half-maximal at 107 µM (IC50).
The compound `CC(=O)c1c2c(c3ccccc3c1O)O[C@H]1OCC[C@@H]21` (relative stereo) gave an IC50 above 100 µg/mL. The IC50 on Tyrosinase [1] is above 370 µM. The MIC against Escherichia coli amounted to 2 µg/mL (≈ 7.4 µM). In the data set with Staphylococcus aureus, this compound came in with an MIC of 8 µg/mL (≈ 29.6 µM).
For `CC(=O)c1c2c(c3ccccc3c1O)O[C@H]1OCCC[C@@H]21` (relative stereo), in that order: above 100 µg/mL, 176 µM, 32 µg/mL (≈ 113 µM) and 0.5 µg/mL (≈ 1.76 µM).

The values are drawn from ChEMBL document CHEMBL3351650, “Anti-tyrosinase, antioxidant, and antibacterial activities of novel 5-hydroxy-4-acetyl-2,3-dihydronaphtho[1,2-b]furans” (Eur J Med Chem, 2014).
